Reference: patent publication US9359372B2, “Hexahydrodibenzo[a,g]quinolizine compound, preparation method thereof, pharmaceutical composition and use thereof” (SHANGHAI INSTITUTE OF MATERIA MEDICA, CHINESE ACADEMY OF …, priority 2011, dated 2016)

Columns and labels:
dopamine D1 receptor = dopamine D1 receptor (Macaca mulatta (Rhesus macaque), UniProt O77680); assay: Affinity on dopamine D1 receptor, competition with [3H] SCH23390; assay type: binding; set-up: D1 receptor inhibition ratio (%): concentration or dose not given beside the values; settings: for affinity on dopamine D1 receptor (in words): summary of the tables
Procedure: (§1) (1). Determination of the Affinity of Hexahydrodibenzo[a,g]Quinolizine Compound of General Formula I and Derivatives Thereof on Dopamine D1, Dopamine D2, 5-HT1A, and 5-HT2A Receptor.
(§2) 1) The Experimental Method
(§3) Different concentrations (10^−5 M-10^−11 M) of the compound of the invention and corresponding isotope receptor ligand as well as receptor protein were loaded into the reaction tube and incubated in 30° C. water bath for 60 minutes. The reaction was terminated in a refrigerator. The reaction mixture was put in a Millipore filter (millipore) cell sample collector, filtered through suction filtration using GF/C glass fiber filter paper, and dried. The resulting sample was placed into 0.5 mL tube. 500 μL liquid scintillation fluid was added and intensity of radioactivity was determined by counting.
(§4) (1) Construction of receptor and materials for cell culture: Escherichia coli. DH5α strain; insect virus transfer vector pVL1393 plasmid; BaculoGold linear Chinese baculovirus DNA, purchased from ParMingen company; mkD1RcDNA; rD2R cDNA; various restriction endonucleases, TaqDNA polymerase, T4 ligase, etc., LB medium; insect cell culture TNM-FH.
(§5) (2) the Experimental Materials for Receptor Binding
(§6) Firstly, the above […] are dissolved in DMSO and then diluted with double distilled water to the appropriate concentration (10^−5 M-10^−11 M).
(§7) (+) Butaclamo purchased from RBI company, GF/C glass fiber filter paper purchased from Whatman Co., scintillation fluid (dopamine D1, D2 receptors)/liposoluble scintillation fluid (5-HT1A, 5-HT2A receptor), Beckman LS-6500 multi-function liquid scintillation counter.

dopamine D2 receptor [1] = molecular target: T1, dopamine D2 receptor (Homo sapiens (Human), UniProt P14416); assay: Inhibition property on dopamine D2 receptor, cAMP detection in CHO cells stably expressing D2 receptor; assay type: cell-based; settings: 10 μM Forskoline and 10 μM dopamine, read-out: D2 receptor Antagonist IC50
Procedure: 2. Determination of the Inhibition Property of Hexahydrodibenzo[a,g]Quinolizine Compound of General Formula I and Derivatives Thereof on Dopamine D2 Receptor.
(1) The Experimental Method
Each medicament was dissolved in serum-free F12 culture medium containing 100 μM of IBMX. CHO cells which can stably express D2 receptor were pre-incubated at 37° C. for 10 min, and then 10 μM Forskoline and 10 μM Dopanie were added at the same time to react for 10 min. 100 μL, of pre-cooled 1 M of HClO4 was added and the reaction was terminated at 4° C. for 1 hour. 20 μL of 2 M K2CO3 was added to neutralize the reaction. […] A certain amount of the supernatant was taken for cAMP detection.

D2 dopamine receptor = D2 dopamine receptor (Rattus norvegicus (Rat), UniProt P61169); assay: Affinity on dopamine D2 receptor, competition with [3H] Spiperone; assay type: binding; set-up: D2 receptor inhibition ratio (%): concentration or dose not given beside the values; settings: for affinity on dopamine D2 receptor (in words): summary of the tables
Procedure: as §1, §2, §3, §4, §5, §6, §7

dopamine D2 receptor [2] = molecular target: T1, dopamine D2 receptor; assay: Radioligand binding assay, D2 receptor, HEK293T membrane homogenates; set-up: D2 Inhibition (%): concentration or dose not given beside the values; settings: HEK293T membranes, [3H]Spiperone
Procedure: (§8) The affinity of compounds to D1 and D2 dopamine receptors were determined by competition binding assays. Membrane homogenates of HEK293T cells were stably transfected with D1, or D2 receptors. […] The reaction was started by addition of membranes ([…]) and stopped by rapid filtration through Whatman GF/B glassfiber filter and subsequently washed with cold buffer (50 mM Tris, 5 mM EDTA, pH 7.4) using a Brandel 24-well cell harvester. Scintillation cocktail was added and the radioactivity was determined in a MicroBeta liquid scintillation counter. The IC50 and Ki values were calculated by nonlinear regression (PRISM, Graphpad, San Diego, Calif.) using a sigmoidal function.

5-HT1A receptor = 5-HT1A receptor (Homo sapiens (Human), UniProt P08908); assay: Affinity on 5-HT1A receptor, competition with [3H] 8-OH-DPAT; assay type: binding
Procedure: as §1, §2, §3, §5
8-OH-DPAT; 5-HT1A receptor protein expressed in HEK-293 cells;
as §6, §7

D1 receptor = D1 receptor (Homo sapiens (Human), UniProt P21728); assay: [35S]GTPγS binding assay for D1 receptor; assay type: biochemical; settings: for D1 antagonist Imax % / IC50: [35S]GTPγS binding; for IC50: read-out: D1 antagonist IC50; for D1 receptor antagonistic activity (in words) / D1 receptor selectivity (in words): summary of Table 10
5-HT2A receptor = 5-HT2A receptor (Homo sapiens (Human), UniProt P28223); assay: Affinity on 5-HT2A receptor, competition with [3H]-Ketanserin; assay type: binding
Procedure: as §1, §2, §3, §5, §6, §7

D1 dopamine receptors = D1 dopamine receptors (Homo sapiens (Human), UniProt P21728); assay: Radioligand binding assay, D1 receptor, HEK293T membrane homogenates; settings: HEK293T membranes, [3H]SCH23390
Procedure: as §8

[3] = according to CN101037436; cited from earlier work

Chain of D2 dopamine receptor (P61169 whole entry): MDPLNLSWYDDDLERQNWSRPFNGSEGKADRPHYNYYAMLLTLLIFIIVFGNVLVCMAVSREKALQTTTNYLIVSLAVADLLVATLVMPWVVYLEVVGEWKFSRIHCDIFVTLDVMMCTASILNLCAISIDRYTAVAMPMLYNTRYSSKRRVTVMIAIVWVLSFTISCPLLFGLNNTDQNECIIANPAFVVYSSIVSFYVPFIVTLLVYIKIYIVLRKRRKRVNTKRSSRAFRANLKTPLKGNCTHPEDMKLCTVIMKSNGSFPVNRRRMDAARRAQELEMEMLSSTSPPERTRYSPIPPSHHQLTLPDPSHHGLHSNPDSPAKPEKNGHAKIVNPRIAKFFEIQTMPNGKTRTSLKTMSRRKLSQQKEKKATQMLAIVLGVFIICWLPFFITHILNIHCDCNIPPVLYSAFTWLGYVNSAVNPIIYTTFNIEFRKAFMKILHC
Chain of 5-HT1A receptor (P08908 whole entry): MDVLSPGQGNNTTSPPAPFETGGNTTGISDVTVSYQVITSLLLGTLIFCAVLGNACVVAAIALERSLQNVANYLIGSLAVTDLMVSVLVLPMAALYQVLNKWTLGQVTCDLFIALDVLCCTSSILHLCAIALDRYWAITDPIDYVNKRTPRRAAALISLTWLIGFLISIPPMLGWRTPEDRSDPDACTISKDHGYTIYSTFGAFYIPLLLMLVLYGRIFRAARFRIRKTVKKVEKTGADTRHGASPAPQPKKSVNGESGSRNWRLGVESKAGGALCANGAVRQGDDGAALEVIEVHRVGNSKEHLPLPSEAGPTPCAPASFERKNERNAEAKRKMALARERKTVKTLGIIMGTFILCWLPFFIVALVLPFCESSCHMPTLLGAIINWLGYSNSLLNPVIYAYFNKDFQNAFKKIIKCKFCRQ
Chain of D1 dopamine receptors (P21728 whole entry): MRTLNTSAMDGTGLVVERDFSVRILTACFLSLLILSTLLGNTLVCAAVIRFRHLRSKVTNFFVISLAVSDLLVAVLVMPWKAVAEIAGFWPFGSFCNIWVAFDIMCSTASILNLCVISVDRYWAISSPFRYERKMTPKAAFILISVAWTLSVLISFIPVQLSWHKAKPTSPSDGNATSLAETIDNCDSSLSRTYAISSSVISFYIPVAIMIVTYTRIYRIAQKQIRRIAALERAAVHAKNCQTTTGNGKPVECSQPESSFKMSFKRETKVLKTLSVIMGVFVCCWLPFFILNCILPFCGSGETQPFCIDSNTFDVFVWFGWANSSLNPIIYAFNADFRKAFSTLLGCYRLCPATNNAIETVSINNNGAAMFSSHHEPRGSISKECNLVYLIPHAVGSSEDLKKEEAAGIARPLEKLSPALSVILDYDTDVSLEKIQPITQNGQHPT
Chain of D1 receptor (P21728 whole entry): as above
Chain of 5-HT2A receptor (P28223 whole entry): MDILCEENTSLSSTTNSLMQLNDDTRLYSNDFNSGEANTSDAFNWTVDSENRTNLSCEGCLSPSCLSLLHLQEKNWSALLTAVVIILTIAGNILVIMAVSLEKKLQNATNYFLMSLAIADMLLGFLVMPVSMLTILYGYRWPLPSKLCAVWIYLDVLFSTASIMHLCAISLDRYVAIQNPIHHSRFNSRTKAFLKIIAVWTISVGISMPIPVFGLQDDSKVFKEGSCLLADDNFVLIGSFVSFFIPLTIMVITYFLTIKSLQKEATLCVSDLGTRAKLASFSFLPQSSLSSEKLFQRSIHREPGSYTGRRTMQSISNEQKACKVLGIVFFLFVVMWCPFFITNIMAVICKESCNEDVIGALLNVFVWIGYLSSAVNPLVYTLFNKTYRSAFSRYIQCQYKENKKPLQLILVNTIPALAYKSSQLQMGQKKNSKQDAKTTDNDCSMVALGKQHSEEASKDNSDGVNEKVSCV
Chain of dopamine D1 receptor (O77680 whole entry): as the sequence (P21728 whole entry) above, with N311I counted along it
T1 sequence (P14416 whole entry, species assumed): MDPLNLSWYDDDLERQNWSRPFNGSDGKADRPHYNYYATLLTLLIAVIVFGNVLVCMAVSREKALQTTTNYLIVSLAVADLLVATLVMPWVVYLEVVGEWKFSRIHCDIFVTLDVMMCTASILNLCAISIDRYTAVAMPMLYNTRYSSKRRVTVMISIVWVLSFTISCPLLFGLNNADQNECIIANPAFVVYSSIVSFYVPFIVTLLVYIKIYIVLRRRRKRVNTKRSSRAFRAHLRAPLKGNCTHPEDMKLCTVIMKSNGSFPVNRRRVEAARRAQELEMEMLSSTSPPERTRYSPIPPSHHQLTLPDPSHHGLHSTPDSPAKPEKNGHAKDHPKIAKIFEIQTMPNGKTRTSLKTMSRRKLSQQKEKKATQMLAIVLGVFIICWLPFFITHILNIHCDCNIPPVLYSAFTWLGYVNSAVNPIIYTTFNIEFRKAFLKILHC

| Compound | D1 receptor inhibition ratio (%) (dopamine D1 receptor) | IC50 (dopamine D1 receptor) [nM] | Ki (dopamine D1 receptor) [nM] | IC50 (dopamine D2 receptor [1]) [µM] | D2 receptor inhibition ratio (%) (D2 dopamine receptor) | D2 Inhibition (%) (dopamine D2 receptor [2]) | affinity on dopamine D1 receptor (in words) (dopamine D1 receptor) | affinity on dopamine D2 receptor (in words) (D2 dopamine receptor) | Ki (D1 dopamine receptors) [nM] | other results |
| --- | --- | --- | --- | --- | --- | --- | --- | --- | --- | --- |
| COc1cc2c(cc1OC)C1Cc3c(OC)ccc(OC)c3CN1CC2 (racemic) [DC037003, (±)-2,3,9,12-tetramethoxy-5,8,13,13a-tetrahydro-6H-dibenzo[a,g]quinolizine] | 98.0 | 370 | 247 | 3.3 | 75.75 |  |  |  |  |  |
| COc1cc2c(cc1OC)C1Cc3cc(C)cc(C)c3CN1CC2 (racemic) [DC037018, (±)-2,3-bimethoxy-9,11-dimethyl-5,8,13,13a-tetrahydro-6H-dibenzo[a,g]quinolizine] | 82.5 | 2920 | 1440 | 15.6 | 77.4 |  |  |  |  |  |
| COc1cc2c(cc1OC)CN1CCc3cc(O)c(O)cc3C1C2 (racemic) [DC037024, (±)-2,3-bihydroxy-10,11-bimethoxy-5,8,13,13a-tetrahydro-6H-dibenzo[a,g]quinolizine] | 91.3 | 1500 | 741 | 0.591 | 76.2 |  |  |  |  |  |
| COc1cc2c(cc1OC)[C@@H]1Cc3c(OC)ccc(OC)c3CN1CC2 [DC037008, S-(−)-2,3,9,12-tetramethoxy-5,8,13,13a-tetrahydro-6H-dibenzo[a,g]quinolizine] | 101.0 | 101 | 50.1 | 4.03 | 92.8 |  |  |  |  | IC50 (D2 dopamine receptor): 1730 nM; Ki (D2 dopamine receptor): 334 nM |
| COc1cc2c(cc1OC)[C@@H]1Cc3cc(C)cc(C)c3CN1CC2 [DC037017, S-(−)-2,3-bimethoxy-9,11-dimethyl-5,8,13,13a-tetrahydro-6H-dibenzo[a,g]quinolizine] | 94.5 | 684 | 338 | 16.2 | 97.4 |  |  |  |  | IC50 (D2 dopamine receptor): 1160 nM; Ki (D2 dopamine receptor): 224 nM |
| COc1cc2c(cc1O)[C@@H]1Cc3c(OC)ccc(OC)c3CN1CC2 [DC037030, S-(−)-2-hydroxy-3,9,12-trimethoxy-5,8,13,13a-tetrahydro-6H-dibenzo[a,g]quinolizine] | 99.89 | 7.22 | 3.7 |  | 74.27 | 74.27 | strong affinity | strong affinity | 3.7 ± 0.26 | 5-HT1A receptor inhibition ratio (%) (5-HT1A receptor): 80.41%; IC50 (5-HT1A receptor): 626 nM; Ki (5-HT1A receptor): 493 nM; D1 antagonist Imax % (D1 receptor): 86.8 ± 1.6%; IC50 (D1 receptor): 1900 ± 400 nM; D1 receptor antagonistic activity (in words) (D1 receptor): D1 receptor antagonistic activity; D1 receptor selectivity (in words) (D1 receptor): good D1 receptor selectivity; 5-HT2A receptor inhibition ratio (%) (5-HT2A receptor): 39.99% |
| COc1cc2c(cc1O)[C@@H]1Cc3cc(C)cc(C)c3CN1CC2 [DC037031, S-(−)-2-hydroxy-3-methoxy-9,11-dimethyl-5,8,13,13a-tetra-hydro-6H-dibenzo[a,g]quinolizine] | 98.99 | 56.4 | 28.9 |  | 90.10 |  | strong affinity | strong affinity | 28.9 ± 2.73 | Ki (dopamine D2 receptor [2]): 161 ± 21.1 nM; IC50 (D2 dopamine receptor): 456 nM; Ki (D2 dopamine receptor): 161 nM |
| COc1ccc(OC)c2c1C[C@H]1c3cc4c(cc3CCN1C2)OCCO4 [DC037032] | 99.21 | 49.2 | 25.2 |  | 28.67 |  | strong affinity | strong affinity |  | 5-HT1A receptor inhibition ratio (%) (5-HT1A receptor): 95.36%; IC50 (5-HT1A receptor): 51.5 nM; Ki (5-HT1A receptor): 40.6 nM; 5-HT2A receptor inhibition ratio (%) (5-HT2A receptor): 37.75% |
| COc1ccc(OC)c2c1C[C@H]1c3cc(O)c(O)cc3CCN1C2 [DC037035, S-(−)-2,3-bihydroxy-9,12-bimethoxy-5,8,13,13a-tetrahydro-6H-dibenzo[a,g]quinolizine] | 99.68 | 13.3 | 6.72 |  | 84.30 | 84.30 | strong affinity | strong affinity | 6.72 ± 0.34 |  |
| COc1cc2c(c(OC)c1)CN1CCc3cc(OC)c(OC)cc3[C@@H]1C2 [DC037075, (S)-2,3,9,11-tetramethoxy-5,8,13,13a-tetrahydro-6H-dibenzo[a,g]quinolizine] | 97.88 | 114 | 64.1 |  | 39.50 |  |  |  |  | 5-HT1A receptor inhibition ratio (%) (5-HT1A receptor): 90.77%; IC50 (5-HT1A receptor): 922 nM; Ki (5-HT1A receptor): 730 nM; 5-HT2A receptor inhibition ratio (%) (5-HT2A receptor): 54.04% |
| COc1cc2c(cc1OC)[C@@H]1Cc3c(CO)c(OC)cc(OC)c3CN1CC2 [DC037076, (S)-2,3,9,11-tetramethoxy-12-hydroxymethyl-5,8,13,13a-tetra-hydro-6H-dibenzo[a,g]quinolizine] |  |  |  |  |  | 1.02 |  |  | 74.5 ± 3.85 |  |
| COc1cc(OC)c2c(c1CO)C[C@H]1c3cc4c(cc3CCN1C2)OCO4 [DC037077, (S)-2,3-methylenedioxy-9,11-bimethoxy-12-hydroxymethyl-5,8,13,13a-tetrahydro-6H-dibenzo[a,g]quinolizine] | 97.33 | 324 | 182 |  | 41.75 |  |  |  |  | 5-HT1A receptor inhibition ratio (%) (5-HT1A receptor): 88.63%; IC50 (5-HT1A receptor): 758 nM; Ki (5-HT1A receptor): 600 nM; 5-HT2A receptor inhibition ratio (%) (5-HT2A receptor): 45.63% |
| COc1cc2c(c(OC)c1)CN1CCc3cc4c(cc3[C@@H]1C2)OCO4 [DC037078, (S)-2,3-methylenedioxy-9,11-bimethoxy-5,8,13,13a-tetrahydro-6H-dibenzo[a,g]quinolizine] | 97.79 | 142 | 74.5 |  | 1.02 | 39.50 |  |  | 64.1 ± 4.43 |  |
| COc1cc2c(c(OC)c1)CN1CCc3cc(OC)c(O)cc3[C@@H]1C2 [DC037079, (S)-2-hydroxy-3,9,11-trimethoxy-5,8,13,13a-tetrahydro-6H-dibenzo-[a,g]quinolizine] | 99.99 | 9.85 | 5.18 |  | 76.21 | 83.31 | strong affinity | strong affinity | 2.53 ± 0.16 | D1 antagonist Imax % (D1 receptor): 94.2 ± 1.5%; IC50 (D1 receptor): 1400 ± 200 nM; D1 receptor antagonistic activity (in words) (D1 receptor): D1 receptor antagonistic activity; D1 receptor selectivity (in words) (D1 receptor): good D1 receptor selectivity |
| COc1c(O)ccc2c1CN1CCc3cc4c(cc3[C@@H]1C2)OCC4 [DC037081, S-(−)-9-methoxyl-10-hydroxy-2,3,5,8,13,13a-hexahydro-8H-benzo[3,2,a,g]furanquinolizine] | 22.60 |  |  |  | 73.07 |  |  |  | 17.3 ± 0.54 | Ki (dopamine D2 receptor [2]): 147 ± 10.2 nM |
| COc1cc2c(cc1O)[C@@H]1Cc3ccc(O)c(OC)c3CN1CC2 [l-SPD, l-Stepholidine] |  |  |  |  |  |  |  |  |  | oral bioavailability [3]: 6.83% |
